Experimental data reported in US12509449B2, “Anthelmintic compounds comprising a quinoline structure” (Intervet Inc., priority 2019, dated 2025).

Legend:
Haemonchus contortus [1] = experiment: In vitro assay Haemonchus contortus exsheathed L3 larvae motility; type: cell-based; details: 168 h, incubation 7 days, automated microscopy, read-out: ED50 against Haemonchus contortus (motility reduced by 50%)
Description: Solutions of compounds with declining concentrations in DMSO were prepared, diluted with nutrient medium and distributed to 96 well microtiterplates. […]3 larvae of Haemonchus contortus were incubated for 20 min at 37° C. in a water bath, separated by centrifugation and added to the wells with 300 Larvae/well. After incubation for 7 days motility was assessed by automated microscopy. Ivermectin was used as positive control, DMSO as negative control and ED50 values were calculated which represent the concentration for an individual compound that reduces motility by 50% with respect to the […].

[2] = molecular target: Caenorhabditis elegans slo-1a (Caenorhabditis elegans, UniProt Q95V25); experiment: Agonistic activity at C. elegans Slo-1a, membrane potential (FLIPR) in transfected CHO K1 cells; details: EC50 agonistic activity at C. elegans Slo-1a, membrane potential dye, 70 mM KCl
Caenorhabditis elegans slo-1a, sequence (Q95V25 whole entry): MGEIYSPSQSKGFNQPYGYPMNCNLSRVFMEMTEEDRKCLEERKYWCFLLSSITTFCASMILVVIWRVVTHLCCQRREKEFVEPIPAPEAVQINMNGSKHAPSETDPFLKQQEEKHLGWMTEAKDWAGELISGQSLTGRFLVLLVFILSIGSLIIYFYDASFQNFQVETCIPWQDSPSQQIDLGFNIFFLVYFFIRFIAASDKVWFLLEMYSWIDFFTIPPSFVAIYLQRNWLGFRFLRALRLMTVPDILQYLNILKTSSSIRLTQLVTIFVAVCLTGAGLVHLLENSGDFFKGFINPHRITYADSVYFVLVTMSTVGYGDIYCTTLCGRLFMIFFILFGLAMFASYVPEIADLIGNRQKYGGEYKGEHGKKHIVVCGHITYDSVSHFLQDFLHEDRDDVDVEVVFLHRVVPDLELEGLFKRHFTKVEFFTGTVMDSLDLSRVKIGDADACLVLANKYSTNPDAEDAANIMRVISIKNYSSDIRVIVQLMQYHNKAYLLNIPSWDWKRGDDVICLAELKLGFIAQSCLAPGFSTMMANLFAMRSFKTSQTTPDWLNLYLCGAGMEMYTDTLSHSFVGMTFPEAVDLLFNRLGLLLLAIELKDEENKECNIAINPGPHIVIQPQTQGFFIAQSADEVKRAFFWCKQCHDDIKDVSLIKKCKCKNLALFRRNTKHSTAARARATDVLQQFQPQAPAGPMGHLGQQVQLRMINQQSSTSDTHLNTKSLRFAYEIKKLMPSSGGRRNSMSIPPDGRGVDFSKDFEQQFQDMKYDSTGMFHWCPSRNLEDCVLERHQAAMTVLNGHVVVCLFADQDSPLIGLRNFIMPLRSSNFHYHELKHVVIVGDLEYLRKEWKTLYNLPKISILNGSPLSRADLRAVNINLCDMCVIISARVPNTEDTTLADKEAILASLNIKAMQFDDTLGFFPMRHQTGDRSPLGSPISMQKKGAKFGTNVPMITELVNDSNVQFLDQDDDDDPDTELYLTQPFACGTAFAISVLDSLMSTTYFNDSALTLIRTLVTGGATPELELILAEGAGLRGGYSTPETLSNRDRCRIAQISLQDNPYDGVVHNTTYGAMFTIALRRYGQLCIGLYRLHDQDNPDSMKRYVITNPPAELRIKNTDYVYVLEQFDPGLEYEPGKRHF
Description: A CHO K1 cell line stably transfected with the Caenorhabditis elegans slo-1a (accession no Y51A2D.19a) was established. Cells were seeded in microtiter plates (black 384-well MTP, clear bottom) in a concentration of 10,000 cells/well in 25 μl medium and cultured for 20 to 24 hours at 37° C. and 5% CO2. The cell medium was removed, and the cells washed with Tyrode's solution. 1 of FMP-dye Blue-Tyrode's was added to each well and incubated at room temperature for 30 min.
For the membrane potential measurements, the prepared cell plate and substance plate were placed in the FLIPR Tetra (Molecular Devices). The baseline measurement of the fluorescence was stared for 20 sec (Exc. 510-545 nm, Emm. 565-625 nm). The cells were depolarized by addition of 25p of the diluted test compounds (final assay concentration of the KCl-Tyrode: 70 mM KCl, 2 mM CaCl2), 1 mM MgCl2, 0.8 mM NaH2PO4, 5 mM Glucose, 28 mM Hepes, pH 7.4, including the voltage sensitive dye). The complete measurement takes 150 s.
EC50 values were determined in triplicate utilizing compound dilution series. The data were determined at least in two independent tests. The data were proceeded by using the ActivityBase XE Runner software (IDBS) for curve fitting and calculation of the half-maximal effective concentration.

[3] = molecular target: T1, human Maxi K channel (BK channel), KCNMA1 (KCa1.1) and beta1 (KCNMB1) subunits (Homo sapiens, UniProt Q12791); experiment: Agonistic activity at the human Maxi K channel (BK channel), membrane potential (FLIPR) in transfected CHO K1 cells; type: cell-based; details: membrane potential dye, 70 mM KCl
T1 construct: expressed in transfected cells; host or cells: CHO K1
T1 sequence (Q12791 1-1178 isoform Q12791-5): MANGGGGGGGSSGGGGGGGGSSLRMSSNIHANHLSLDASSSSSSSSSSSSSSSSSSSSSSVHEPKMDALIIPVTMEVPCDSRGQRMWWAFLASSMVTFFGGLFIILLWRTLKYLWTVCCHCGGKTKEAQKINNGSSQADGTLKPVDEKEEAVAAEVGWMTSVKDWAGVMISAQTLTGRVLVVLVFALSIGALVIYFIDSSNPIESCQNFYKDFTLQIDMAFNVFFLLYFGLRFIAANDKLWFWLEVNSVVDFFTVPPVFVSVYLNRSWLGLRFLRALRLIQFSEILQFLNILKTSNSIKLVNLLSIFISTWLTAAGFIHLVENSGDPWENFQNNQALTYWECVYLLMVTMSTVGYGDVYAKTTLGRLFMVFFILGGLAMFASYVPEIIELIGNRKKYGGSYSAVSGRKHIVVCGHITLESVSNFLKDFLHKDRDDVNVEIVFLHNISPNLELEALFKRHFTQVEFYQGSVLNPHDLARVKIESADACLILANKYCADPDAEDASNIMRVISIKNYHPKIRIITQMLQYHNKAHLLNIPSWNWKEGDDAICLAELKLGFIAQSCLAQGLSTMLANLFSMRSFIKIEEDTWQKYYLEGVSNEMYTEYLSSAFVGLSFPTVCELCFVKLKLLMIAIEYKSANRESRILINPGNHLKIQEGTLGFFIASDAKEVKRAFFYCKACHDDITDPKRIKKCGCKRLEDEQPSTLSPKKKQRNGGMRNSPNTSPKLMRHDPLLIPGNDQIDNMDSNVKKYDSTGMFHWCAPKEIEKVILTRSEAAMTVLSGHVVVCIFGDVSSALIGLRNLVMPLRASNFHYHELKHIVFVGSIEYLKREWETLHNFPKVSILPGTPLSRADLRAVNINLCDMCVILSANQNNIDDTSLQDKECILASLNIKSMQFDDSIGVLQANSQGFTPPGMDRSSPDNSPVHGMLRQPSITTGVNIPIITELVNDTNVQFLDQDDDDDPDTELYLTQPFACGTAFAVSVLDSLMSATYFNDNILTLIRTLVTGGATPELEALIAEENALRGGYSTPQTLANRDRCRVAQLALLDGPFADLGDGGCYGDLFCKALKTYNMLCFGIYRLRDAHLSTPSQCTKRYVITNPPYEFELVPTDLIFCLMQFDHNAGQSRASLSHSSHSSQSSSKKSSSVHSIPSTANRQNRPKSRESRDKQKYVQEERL
T1 sequence (Q16558 whole entry partner): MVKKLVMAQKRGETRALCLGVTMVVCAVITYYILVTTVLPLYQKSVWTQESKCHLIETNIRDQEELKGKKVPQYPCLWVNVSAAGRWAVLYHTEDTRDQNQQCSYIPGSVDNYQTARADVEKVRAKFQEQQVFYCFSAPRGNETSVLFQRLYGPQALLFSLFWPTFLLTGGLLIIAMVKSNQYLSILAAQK
From the text: A CHO K1 cell line was stably transfected with the KCNMA1 (KCa1.1, U11058) and beta1 (KCNMB1) subunits of the human Maxi K channel (Ponte et al, Molecular Pharmacology 2012, 81(4), 567-577).
The complete measurement takes 150 s.

Ascaridia galli L3 = experiment: In vitro assay Ascaridia galli larval stage 3, minimum effective concentration; type: cell-based; details: 20 larvae per well, microscopic examination, read-out: MEC (minimum effective concentration) against Ascaridia galli L3
From the text: (§1) […] galli (intestinal roundworm of chicken), larval stage 3 (“L3”); and Oesophagostumum dentatum (nodular worm of swine), larval stages 3 and 4 (respectively “L3” and “L4”) where suspended in a nutrient medium and distributed to 96 well plates with 20 larvae per well. The wells were spiked DMSO solutions of the compounds with declining concentration.

[4] = system: Oesophagostumum dentatum L3; experiment: In vitro assay Oesophagostumum dentatum larval stage 3, minimum effective concentration; type: cell-based; details: 20 larvae per well, microscopic examination; read-out: MEC (minimum effective concentration) against Oesophagostumum dentatum L3
From the text: as §1

Dirofilaria immitis L1 = experiment: In vitro assay Dirofilaria immitis L1 (microfilaria) motility; type: cell-based; details: 72 h, incubation 3 days, read-out: EC50 Dirofilaria immitis L1, reduction in motility
Description: (§2) Approximately 500 D. immitis microfilaria were added to a microtiter plate containing a nutrient medium and the test compound in DMSO at varying concentrations. After incubation for 3 days, activity was evaluated as reduction in motility as compared to DMSO as negative control. Compounds were tested in duplicates. Based on the concentration response curves EC50 values were calculated.

Dirofilaria immitis L4 = experiment: In vitro assay Dirofilaria immitis L4 motility; type: cell-based; details: 72 h, 10 larvae L4, incubation 3 days, read-out: EC50 Dirofilaria immitis L4, reduction in motility
Description: as §2, with “10 larvae L4 of” for “Approximately 500”, “immitis” for “immitis microfilaria”

[5] = system: Oesophagostumum dentatum L4; experiment: In vitro assay Oesophagostumum dentatum larval stage 4, minimum effective concentration; type: cell-based; details: 20 larvae per well, microscopic examination; read-out: MEC (minimum effective concentration) against Oesophagostumum dentatum L4
From the text: as §1

Haemonchus contortus [6] = experiment: In vivo efficacy against Haemonchus contortus in jirds; design: species or system Haemonchus contortus in jirds (Meriones unguiculatus); details: necropsy three days after treatment
Description: Compounds according to this invention were tested in vivo using Haemonchus contortus in jirds (Meriones unguiculatus). The jirds were orally infected with approximately 1500 third-stage larvae of Haemonchus contortus. Ten days after infection, the jirds in the treatment groups were treated once either orally or subcutaneously with compounds at a dose of […]. For treatment, compounds were dissolved in a mixture of 10% Transcutol, 10% Cremophor EL and 80% physiological sodium chloride solution. Three days after treatment, the jirds were necropsied, and the larvae burden in the stomach was determined. The efficacy was defined as the reduction of the mean larvae count in the infected jirds of the treatment group in comparison to the infected jirds in an untreated control group (negative control).

[7] = system: Acanthocheilonema viteae L1; experiment: In vitro assay Acanthocheilonema viteae L1 (microfilaria) motility; type: cell-based; details: 72 h, incubation 3 days, read-out: EC50 Acanthocheilonema viteae L1, reduction in motility
Description: as §2, with “A. viteae” for “D. immitis”

Row | SMILES | EC50 [2] [µM] | EC50 [3] [µM] | minimal effective concentration (Ascaridia galli L3) [µM] | minimal effective concentration [4] [µM] | minimal effective concentration [5] [µM] | further results
1 | CN(C)c1c(NC(=O)C2CCOc3ccccc32)cnc2c(-c3cccc(Cl)c3F)cccc12 (stereo not shown) [Compound 42] | < 1 | > 30 |  |  |  | EC50 (Haemonchus contortus [1]): < 50 µM
2 | CC(C(=O)Nc1cnc2c(-c3cccc(Cl)c3Cl)cccc2c1N(C)C)c1ccccc1 (stereo not shown) [Compound 24] | < 10 | > 30 | ≤ 50 | ≤ 50 |  | EC50 (Haemonchus contortus [1]): < 50 µM
3 | O=C(Nc1cnc2c(-c3cc(Cl)cc(Cl)c3)cccc2c1O)C1CCCc2ccccc21 (stereo not shown) [Compound 63] |  | > 30 |  |  |  | EC50 (Dirofilaria immitis L1): < 10 µM
4 | CN(C)c1c(NC(=O)Cc2ccccc2)cnc2c(-c3cc(Cl)cc(Cl)c3)cccc12 [Compound 3] | < 10 | > 30 | ≤ 50 | ≤ 50 |  | EC50 (Dirofilaria immitis L4): < 1 µM
5 | O=C(Nc1cnc2c(-c3cccc(Cl)c3Cl)cccc2c1N1CCC(O)C1)C1CCOc2ccccc21 (stereo not shown) [Compound 37] | < 1 | 10 to 30 | ≤ 50 |  | ≤ 50 | 
6 | O=C(Nc1cnc2c(-c3cccc(Cl)c3Cl)c(F)ccc2c1N1CCOCC1)c1cccc2ccccc12 [Compound 151] |  |  |  |  |  | reduction of the Haemonchus contortus count (Haemonchus contortus [6]; administered orally once at 10 mg/kg bw): at least 80%; reduction of the Haemonchus contortus count (Haemonchus contortus [6]; administered subcutaneously once at 10 mg/kg bw): at least 80%
7 | CN(CCO)c1c(NC(=O)C2CCOc3ccccc32)cnc2c(-c3cccc(Cl)c3Cl)cccc12 (stereo not shown) [Compound 92] | < 10 | > 30 |  |  | ≤ 50 | 
8 | CCN(C(=O)C1CCOc2ccccc21)c1cnc2c(-c3cc(Cl)cc(Cl)c3)cccc2c1N(C)C (stereo not shown) [Compound 162] |  | > 30 | ≤ 50 | ≤ 50 |  | EC50 [7]: < 10 µM
9 | Cc1c(NC(=O)C2CCCc3ccccc32)cnc2c(-c3cc(Cl)cc(Cl)c3)cccc12 (stereo not shown) [Compound 192] | < 10 | > 30 |  |  | ≤ 50 | 
10 | O=C(Nc1cnc2c(-c3cc(Cl)cc(Cl)c3)cccc2c1N1CCOCC1)C1CCCc2ccccc21 (stereo not shown) [Compound 8] | < 1 | 10 to 30 |  |  |  | EC50 (Haemonchus contortus [1]): < 50 µM
11 | CCN(C)c1c(NC(=O)C2CCCc3ccccc32)cnc2c(-c3cccc(Cl)c3Cl)cccc12 (stereo not shown) [Compound 98] |  | > 30 |  |  |  | EC50 [7]: < 10 µM
12 | O=C(Nc1cnc2c(-c3cc(Cl)cc(Cl)c3)c(F)ccc2c1N1CCOCC1)C1CCCc2ccccc21 (stereo not shown) [Compound 116] | < 1 | > 30 | ≤ 50 |  |  | EC50 (Haemonchus contortus [1]): < 50 µM
13 | CN(C(=O)C1CCOc2ccccc21)c1cnc2c(-c3cccc(Cl)c3Cl)cccc2c1N1CCOCC1 (stereo not shown) [Compound 158] |  | > 30 |  | ≤ 50 | ≤ 50 | 
14 | CC(C(=O)Nc1cnc2c(-c3cccc(Cl)c3Cl)cccc2c1N(C)C)c1cccc(Cl)c1 (stereo not shown) [Compound 28] |  | > 30 | ≤ 50 |  | ≤ 50 | EC50 (Dirofilaria immitis L1): < 10 µM
15 | CCN(C(=O)C1CCOc2ccccc21)c1cnc2c(-c3cccc(Cl)c3Cl)cccc2c1N1CCOCC1 (stereo not shown) [Compound 159] |  | > 30 | ≤ 50 |  |  | EC50 [7]: < 10 µM
16 | CCOc1c(NC(=O)C2CCCc3ccccc32)cnc2c(-c3cc(Cl)cc(Cl)c3)cccc12 (stereo not shown) [Compound 75] | < 1 | > 30 | ≤ 50 | ≤ 50 |  | 

Row | SMILES | EC50 [2] [µM] | EC50 [3] [µM] | minimal effective concentration (Ascaridia galli L3) [µM] | minimal effective concentration [4] [µM] | minimal effective concentration [5] [µM] | further results
17 | CN(C)c1c(NC(=O)[C@H]2CCCc3ccccc32)cnc2c(-c3cc(Cl)cc(Cl)c3)cccc12 [Compound 156] | < 1 | > 30 |  |  |  | EC50 (Haemonchus contortus [1]): < 50 µM
18 | CC(C)Oc1c(NC(=O)C2CCOc3ccccc32)cnc2c(-c3cc(Cl)cc(Cl)c3)c(F)ccc12 (stereo not shown) [Compound 127] |  | > 30 | ≤ 50 | ≤ 50 |  | EC50 [7]: < 10 µM
19 | CC(C)Oc1c(NC(=O)c2cccc3ccccc23)cnc2c(-c3cc(Cl)cc(Cl)c3)c(F)ccc12 [Compound 147] |  | > 30 |  | ≤ 50 |  | EC50 [7]: < 10 µM
20 | COc1c(NC(=O)C(C)c2ccccc2)cnc2c(-c3cccc(Cl)c3Cl)cccc12 (stereo not shown) [Compound 11] |  | > 30 |  |  |  | EC50 (Dirofilaria immitis L1): < 10 µM
21 | C=C(C)c1c(NC(=O)C2CCc3ccccc32)cnc2c(-c3cccc(Cl)c3Cl)cccc12 (stereo not shown) [Compound 201] | < 1 | > 30 | ≤ 50 | ≤ 50 |  | 
22 | CCOc1c(NC(=O)C2CCc3ccccc32)cnc2c(-c3cc(Cl)cc(Cl)c3)cccc12 (stereo not shown) [Compound 79] | < 10 | > 30 | ≤ 50 | ≤ 50 |  | EC50 (Haemonchus contortus [1]): < 50 µM
23 | CN(C)c1c(NC(=O)c2cccc3ccccc23)cnc2c(-c3cc(Cl)cc(Cl)c3)c(F)ccc12 [Compound 145] | < 1 | > 30 |  |  |  | EC50 (Haemonchus contortus [1]): < 50 µM
24 | CN(C)c1c(NC(=O)Cc2ccccc2)cnc2c(-c3cccc(Cl)c3Cl)cccc12 [Compound 1] | < 10 | > 30 | ≤ 50 | ≤ 50 |  | 
25 | CCN(C(=O)C1CCOc2ccccc21)c1cnc2c(-c3cc(Cl)cc(Cl)c3)cccc2c1N1CCOCC1 (stereo not shown) [Compound 163] |  | > 30 |  |  | ≤ 50 | EC50 [7]: < 10 µM
26 | CN(C)c1c(NC(=O)c2cccc3ccccc23)cnc2c(-c3cccc(Cl)c3Cl)cccc12 [Compound 31] | < 1 | > 30 |  |  |  | EC50 (Haemonchus contortus [1]): < 50 µM
27 | CN(C)c1cccc(CC(=O)Nc2cnc3c(-c4cccc(Cl)c4Cl)cccc3c2N(C)C)c1 [Compound 49] | < 10 | > 30 |  |  | ≤ 50 | 
28 | CCNc1c(NC(=O)C2CCOc3ccccc32)cnc2c(-c3cccc(Cl)c3Cl)cccc12 (stereo not shown) [Compound 86] |  | > 30 | ≤ 50 |  |  | EC50 (Haemonchus contortus [1]): < 50 µM
29 | O=C(Nc1cnc2c(-c3cccc(Cl)c3Cl)cccc2c1N1CCCC1)C1CCc2ccccc21 (stereo not shown) [Compound 18] |  | > 30 | ≤ 50 |  | ≤ 50 | 
30 | O=C(Nc1cnc2c(-c3cccc(Cl)c3Cl)cccc2c1N1CCC(O)C1)C1CCc2ccccc21 (stereo not shown) [Compound 45] | < 1 | 10 to 30 | ≤ 50 |  | ≤ 50 | 
31 | COc1cccc(C(C)C(=O)Nc2cnc3c(-c4cccc(Cl)c4Cl)cccc3c2N(C)C)c1 (stereo not shown) [Compound 29] | < 10 | > 30 | ≤ 50 |  | ≤ 50 | EC50 (Dirofilaria immitis L1): < 10 µM
